Results taken from US20100216788A1, “FUSED HETEROCYCLIC COMPOUND” (TAKEDA PHARMACEUTICAL COMPANY LIMITED, priority 2005, published 2010).
Structures can show the parent of a compound that is named as a salt.

How the values were obtained:
[1] = test system: human breast cancer cell BT-474; test: Inhibitory action on breast cancer cell BT-474 proliferation in vitro; type: cell-based; settings: 120 h, BT-474 cells, cultured 5 days with compound, SRB staining of cell protein
Protocol: A suspension of human breast cancer cell. BT-474 (100 μl (6,000 cells)) were seeded to attach in a 96-well microplate and cultured in an incubator (37° C., 5% carbon dioxide). On the following day, 100 μl of a solution of each test compound previously diluted serially in 2-fold, was added to give indicated dose, and the cells were cultured for 5 days. After the culture medium containing the test compound was removed, the cells were washed and fixed with 50% trichloroacetic acid, after which a 0.4% (w/v) SRB solution (dissolved in 1% acetic acid) was added to stain the cell protein (Skehan et al., Journal of the National Cancer Institute, Vol. 82, pp. 1107-1112, 1990). After washing with a 1% acetic acid solution, 100 μl of Tris solution (10 mM) was added to extract the pigment and the absorbance was measured at a wavelength of 550 nm to quantify the amount of cells as protein content. Taking as 100% the protein content for the control group, which received no test compound solution, the ratio of the residual protein content for, each treatment group was determined, and the compound concentration required to achieve 50% suppression of the residual cell content relative to the control (IC50 value) was calculated.

[2] = target: T1, HER2 intracellular domain (Homo sapiens, UniProt P04626); test: Determination of HER2 kinase inhibitory activity; type: biochemical; settings: test compound at 1.0 μM, poly-Glu:Tyr (4:1) substrate, [γ-32P]ATP, 25° C. 10 min; for inhibition at 1 µM: read-out: Inhibitory rate (%) at 1.0 μM
T1 construct: made in house; host or cells: SF-21 insect cells infected with recombinant baculovirus BAC-HER2 (pFASTBAC1)
Protocol: Human HER2 gene was cloned by RT-PCR using total RNA prepared from MCF7 cells as a template. The primer used for RT-PCR was prepared from nucleotide sequence (Genbank Accession No. M11730) information of HER2 gene by adding a nucleotide sequence encoding DYKDDDD peptide and a restriction enzyme recognition sequence to a nucleotide sequence (2176-3918 of Genbank Accession No. M11730) encoding the HER2 intracellular domain region, so that the protein contains an N-terminal DYKDDDD peptide tag. The primer nucleotide sequence is shown below.
The RT reaction was conducted using SuperScript First-Strand Synthesis System for RT-PCR (Invitrogen) and the PCR reaction was conducted using a KOD-plus kit (TOYOBO). The obtained PCR product was electrophoresed on agarose gel (1%), the DNA fragment amplified by PCR was recovered from the gel, and then digested with restriction enzymes Sal I and Sph I. The DNA treated with the restriction enzymes was electrophoresed on agarose gel (1%), and the obtained DNA fragment was recovered and ligated to plasmid pFASTBAC1 (Invitrogen) digested with restriction enzymes Sal I and Sph I to give expression plasmid pFB-HER2. The nucleotide sequence of the insertion fragment was confirmed and found to be identical with the nucleotide sequence (2176-3918 of Genbank Accession M11730) of HER2 intracellular domain. Furthermore, using BAC-TO-BAC Baculovirus Expression System (Invitrogen), recombinant baculovirus BAC-HER2 was prepared.
SF-21 cells were sown at 1×10^6 cells/mL to Sf-900II SFM medium (1 L, Invitrogen) containing 10% fetal bovine serum (trace), 50 mg/L gentamicin (Invitrogen) and 0.1% Pluronic F-68 (Invitrogen), and shaking culture was performed using a 2 L volume Erlenmeyer flask at 27° C., 100 rpm. After culturing for 24 hr, recombinant baculovirus BAC-HER2 (13.4 mL) was added, and the mixture was further cultured for 3 days. The culture medium was centrifuged at 2,000 rpm for 5 min. to give virus-infected cells. The infected cells were washed with a phosphate buffered saline (Invitrogen), centrifuged under the same conditions, and the cells were preserved at −80° C. The cryopreserved cells were thawed in ice, suspended in buffer A (50 mM Tris buffer (30 mL, pH 7.4) containing 20% glycerol, 0.15 M NaCl) supplemented with Complete Protease Inhibitor (Boehringer), and ruptured 3 times with a Polytron homogenizer (Kinematica) at 20,000 rpm for 30 sec. The rupture medium was clarified by centrifugation at 40,000 rpm for 30 min. and filtered with a 0.45 μm filter. The filtrate was passed through a column packed with Anti-FLAG M2 Affinity Gel (4 mL, Sigma) at a flow rate of about 0.5 mL/min. The column was washed with buffer A, and eluted with buffer A containing 100 μg/mL of FLAG peptide. The eluate was concentrated with Vivaspin 20 (Vivascience) having a molecular weight cut off of 30K. The concentrate was purified by gel filtration using Hi Load Superdex 200pg 16/60 (Amersham Bioscience) equilibrated with buffer A. The fractions containing HER2 intracellular domain were collected, glycerol was added to the final concentration of 50% and cryopreserved at −80° C.
A test compound dissolved in dimethyl sulfoxide (DMSO) was diluted with a buffer for kinase reaction (50 mM Tris-HCl (pH7.5), 5 mM MgCl2, 5 mM MnCl2, 2 mM dithiothreitol, 0.01% Tween-20). To this compound solution (10 μL) was added a buffer for kinase reaction (20 μL) containing 5 μg/mL of HER2 intracellular domain obtained in Experimental Example 1B and 12.5 μg/mL of polypeptide substrate poly-Glu:Tyr (4:1) (Sigma). To the obtained mixture was added 20 μL of ATP solution (1.25 μM ATP, 0.05 μCi [γ-^32P]ATP), the mixture was allowed to react at 25° C. for 10 min. and the reaction was quenched with 50 μL of 20% TCA solution. The reaction solution was allowed to stand at 4° C. for 20 min., and the acid insoluble fraction was transferred to GF/C filter (PerkinElmer) using cell harvester (PerkinElmer) and washed with 250 mM phosphoric acid solution. […]

T1 sequence (P04626 676-1255 limits assumed): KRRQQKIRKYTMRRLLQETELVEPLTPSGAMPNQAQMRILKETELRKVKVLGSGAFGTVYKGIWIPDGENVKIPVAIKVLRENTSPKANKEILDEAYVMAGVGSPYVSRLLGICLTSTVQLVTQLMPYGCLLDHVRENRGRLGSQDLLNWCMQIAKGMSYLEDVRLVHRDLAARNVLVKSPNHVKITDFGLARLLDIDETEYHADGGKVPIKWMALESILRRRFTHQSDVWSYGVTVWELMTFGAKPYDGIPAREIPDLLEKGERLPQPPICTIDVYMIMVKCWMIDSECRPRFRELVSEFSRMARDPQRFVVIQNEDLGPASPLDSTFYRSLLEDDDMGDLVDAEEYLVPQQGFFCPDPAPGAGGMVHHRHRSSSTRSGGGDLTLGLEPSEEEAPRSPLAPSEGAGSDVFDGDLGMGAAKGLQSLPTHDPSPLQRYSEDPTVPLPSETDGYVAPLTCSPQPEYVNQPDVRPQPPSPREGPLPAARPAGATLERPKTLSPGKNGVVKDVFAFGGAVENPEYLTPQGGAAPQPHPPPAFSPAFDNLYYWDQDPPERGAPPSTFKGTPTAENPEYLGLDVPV

| SMILES | IC50 [1] | inhibition at 1 µM [2] | Inhibitory rate (%) at 1.0 μM [2] |
| --- | --- | --- | --- |
| CC(C)(C(=O)NCCn1ccc2ncnc(Nc3ccc(Oc4cccc(Cl)c4)c(Cl)c3)c21)S(C)(=O)=O [Example A-1, N-[2-(4-{[3-chloro-4-(3-chlorophenoxy)phenyl]amino}-5H-pyrrolo[3,2-d]pyrimidin-5-yl)ethyl]-2-methyl-2-(methylsulfonyl)propanamide] | < 100 nM | 98% | – |
| CC(C)(C(=O)NCCn1ccc2ncnc(Nc3ccc(Oc4cccc(Cl)c4)c(Cl)c3)c21)S(C)(=O)=O.Cc1ccc(S(=O)(=O)O)cc1 [Example A-15, N-[2-(4-{[3-chloro-4-(3-chlorophenoxy)phenyl]amino}-5H-pyrrolo[3,2-d]pyrimidin-5-yl)ethyl]-2-methyl-2-(methylsulfonyl)propanamide p-toluenesulfonate] | – | – | 99% |
| OCCOCCn1ccc2ncnc(Nc3cnc(Oc4cccc(C(F)(F)F)c4)c(Cl)c3)c21 [Example B-1, 2-{2-[4-({5-chloro-6-[3-(trifluoromethyl)phenoxy]pyridin-3-yl}amino)-5H-pyrrolo[3,2-d]pyrimidin-5-yl]ethoxy}ethanol] | – | 99% | – |
| CC(C)(C)NC(=O)c1cccc(Oc2ccc(Nc3ncnc4ccn(CCO)c34)cc2Cl)c1 [Example C-26, N-(tert-butyl)-3-(2-chloro-4-{[5-(2-hydroxyethyl)-5H-pyrrolo[3,2-d]pyrimidin-4-yl]amino}phenoxy)benzamide] | – | 98% | – |
| O=C(Nc1cccc(Oc2ccc(Nc3ncnc4ccn(CCOCCO)c34)cc2Cl)c1)C1CC1 [Example C-45, N-{3-[2-chloro-4-({5-[2-(2-hydroxyethoxy)ethyl]-5H-pyrrolo[3,2-d]pyrimidin-4-yl}amino)phenoxy]phenyl}cyclopropanecarboxamide] | < 100 nM | 97% | – |
| CC(C)(C)NC(=O)Cc1cccc(Oc2ccc(Nc3ncnc4ccn(CCO)c34)cc2Cl)c1 [Example C-89, N-(tert-butyl)-2-[3-(2-chloro-4-{[5-(2-hydroxyethyl)-5H-pyrrolo[3,2-d]pyrimidin-4-yl]amino}phenoxy)phenyl]acetamide] | – | 100% | – |
| CS(=O)(=O)CC(=O)NCCn1ccc2ncnc(Nc3ccc(Oc4cccc(OCC5CC5)c4)c(Cl)c3)c21 [Example C-97, N-{2-[4-({3-chloro-4-[3-(cyclopropylmethoxy)phenoxy]phenyl}amino)-5H-pyrrolo[3,2-d]pyrimidin-5-yl]ethyl}-2-(methylsulfonyl)acetamide hydrochloride] | < 100 nM | – | – |
| Cc1cc(Nc2ncnc3ccn(CCNC(=O)CS(C)(=O)=O)c23)ccc1Oc1cccc(OCC(F)(F)F)c1 [Example C-116, 2-(methylsulfonyl)-N-{2-[4-({3-methyl-4-[3-(2,2,2-trifluoroethoxy)phenoxy]phenyl}amino)-5H-pyrrolo[3,2-d]pyrimidin-5-yl]ethyl}acetamide hydrochloride] | < 100 nM | – | – |
| CC(C)(C)CC(=O)c1cccc(Oc2ccc(Nc3ncnc4ccn(CCO)c34)cc2Cl)c1 [Example E-22, 1-[3-(2-chloro-4-{[5-(2-hydroxyethyl)-5H-pyrrolo[3,2-d]pyrimidin-4-yl]amino}phenoxy)phenyl]-3,3-dimethylbutan-1-one] | – | 99% | – |
| CC(C)(O)CC(=O)NCCn1ccc2ncnc(Nc3ccc4c(cnn4Cc4cccc(F)c4)c3)c21 [Example G-5, N-[2-(4-{[1-(3-fluorobenzyl)-1H-indazol-5-yl]amino}-5H-pyrrolo[3,2-d]pyrimidin-5-yl)ethyl]-3-hydroxy-3-methylbutanamide] | < 100 nM | 93% | – |
| CC(C)(C)NC(=O)c1cccc(Cn2ncc3cc(Nc4ncnc5ccn(CCO)c45)ccc32)c1 [Example G-14, N-(tert-butyl)-3-[(5-{[5-(2-hydroxyethyl)-5H-pyrrolo[3,2-d]pyrimidin-4-yl]amino}-1H-indazol-1-yl)methyl]benzamide] | – | 100% | – |
